# Reference: patent US20230241088A1, “COMPOSITION FOR PREVENTING OR TREATING LUNG CANCER COMPRISING ORTHO-TOPOLIN RIBOSIDE AS ACTIVE INGREDIENT” (CHUNG-ANG UNIVERSITY INDUSTRY-ACADEMY COOPERATION FOUNDATION, priority 2022, published 2023)
# Experiments:
# [1] = test system: p-ERK, ERK, p-AKT, AKT, cleaved caspase-3 in NSCLC tumor tissue; experiment: Immunoblot analysis of NSCLC tumor tissue lysates; format: in vivo, nude mice (female, BALB/cSlc-nu/nu); conditions: FIG. 7
# Experimental: The immunoblot analysis was carried out according to a previously described method. A549 cells (4×10^5) were grown to approximately 70-80% confluency and treated with oTR (5, 10, and 50 μM) for 48 hours. The cell lysates and tissue lysates were prepared and subjected to SDS-PAGE for immunoblotting with the respective antibodies. Anti-caspase-3 (9662), anti-p-AKT (4058), and anti-AKT (9272) antibodies were purchased from Cell Signaling Technology (Danvers, Mass., USA). Anti-ERK1/ERK2 (MAB1576) and anti-p-ERK1/ERK2 (AF1018) were purchased from R&D Systems (Minneapolis, Minn., USA). Anti-LC-III (NB100-2331) antibody was purchased from Novus Biologicals (Littleton, Colo., USA). Anti-β-actin (sc-47778) and anti-GAPDH (sc-47724) antibody was purchased from Santa Cruz Biotechnology (Santa Cruz, Calif., USA).
# H1437 = experiment: MTT cell viability assay, H1437; format: cell-based, Human; conditions: 48 hours
# Experimental: (§1) Human NSCLC cell lines A549, H1437, H2087, H522, and HCC827 were obtained from the Korean Cell Line Bank (KCLB, Seoul, Korea). These cells were cultured in RPMI-1640 medium (Gibco, N.Y., USA) supplemented with 10% FBS (Gibco) and 1% penicillin-streptomycin (HyClone Laboratories, Logan, Utah, USA). All cell lines were cultured under standard conditions (5% CO2, humid environment, 37° C.). A549 cells were seeded at a density of 1×10^4 cells/well and H1437, H2087, H522, HCC827, and MRCS cells at a density of 2×10^4 cells/well in 96-well plates and were cultured until cells reach approximately 70-80% confluency. The NSCLC cells were treated with plant hormones for 48 hours. Stock solution of each plant hormone was diluted with culture medium, wherein concentrations of DMSO, water, methanol, and ethanol in the culture medium were below 1% (v/v). The half-maximal inhibitory concentration (IC50) was calculated using CompuSyn software (ComboSyn Inc., Paramus, N.J., USA).
# (§2) The inhibitory effect of plant hormones and their derivatives was investigated on 5 NSCLC cell lines (A549, H1437, H2087, H522, and HCC827). The NSCLC cells were treated with ABA, Cor, ethephon, GR-24, IAA, KR, MJ, N6b, N6i, oTR, and SS-HCS at concentrations of 0.1, 0.5, 1, 5, 10, 50, and 100 μM. Cell viability and IC50 values for 48 hours were investigated by performing the MTT assay.
# [2] = doses of 100 mg/kg or 150 mg/kg, previous study; cited from earlier work
# A549 cells [3] = experiment: Measurement of H2O2 content; format: cell-based, Human; conditions: oTR 5, 10, and 50 μM, 48 hours, dose-dependent
# Experimental: A549 cells were seeded at a density of 2×10^5 cells/mL in a 6-well plate and treated with oTR (5, 10, and 50 μM) or an equal volume of DMSO (control) for 48 hours. H2O2 content was measured according to a previously described method with some modifications added. Briefly, the cell pellets were extracted with 1 mL of 0.1% TCAA, and the extracts were homogenized and centrifuged at 15,000×g at 4° C. for 10 minutes. Potassium phosphate buffer (10 mM; 0.5 mL) and 1 M KI (1 mL) were added to 0.5 mL of the supernatant. The mixture was then incubated for 15 minutes at room temperature in the dark and measured at 390 nm. For normalization, protein concentration was determined using Bio-Rad protein assay kit with BSA as a standard.
# A549 cells [4] = experiment: BrdU cell proliferation assay; format: cell-based, Human
# Experimental: The siRNA sequences for ERK1/2 (5′-CCCUGACCCGUCUAAUA-3′ SEQ ID NO: 1), AKT (5′-GAAGGAAGU CAUCGUGCCCAA-3′ SEQ ID NO: 2), and scrambled siRNA (SN-1001-CFG) were purchased from Bioneer (Daejeon, Korea). Cells were transfected with siRNA using Lipofectamine 3000 (Invitrogen, Carlsbad, Calif., USA) according to the manufacturer's instructions.
# The 5-bromo-2-deoxyuridine (BrdU) cell proliferation assay was performed according to a previously described method. A549 cells (1×10^4) were grown to approximately 70-80% confluency in 96-well plates and treated with oTR (5, 10, and 50 μM) for 48 hours in the presence or absence of U0126, wortmannin, siERK1/2, and siAKT. Cell proliferation was measured using the Cell Proliferation ELISA, BrdU (colorimetric) kit (Roche Diagnostics, Penzberg, Germany), according to the manufacturer's instructions.
# A549 cells [5] = experiment: Annexin V-FITC/propidium iodide flow cytometric apoptosis analysis; format: cell-based, Human; conditions: 48 hours
# Experimental: To detect apoptotic cells, flow cytometric analysis was performed using Annexin V-FITC/propidium iodide double staining of NSCLC cells. A549 cells (4×10^5) were grown to approximately 70-80% confluency in 60 mm dish and treated with oTR (5, 10, and 50 μM) for 48 hours. The cells were stained using the FITC Annexin V Apoptosis Detection Kit (556547, BD Biosciences, Franklin Lakes, N.J., USA) as previously described.
# H522 = experiment: MTT cell viability assay, H522; format: cell-based, Human; conditions: 48 hours
# Experimental: as §1, §2
# HCC827 = experiment: MTT cell viability assay, HCC827; format: cell-based, Human; conditions: 48 hours
# Experimental: as §1, §2
# [6] = oTR-treated NSCLC tumor tissues
smiles,measurement,setting,value
"OC[C@H]1O[C@@H](n2cnc3c(NCc4ccccc4O)ncnc32)[C@H](O)[C@@H]1O [oTR, ortho topolin riboside]",expression of cleaved caspase-3,[1]; oTR (150 mg/kg)-treated group,significantly increased
same,ERK expression,[1]; [6],significant increase
same,p-AKT and AKT expressions,[1]; [6],no significant changes
same,p-ERK expression,[1]; [6],significant decrease
same,IC50,H1437,50 ± 6.55 µM
same,acute toxicity,[2],no acute toxicity
same,H2O2 content,A549 cells [3],significantly increased
same,antiproliferative effect of oTR in presence of ERK inhibitors (U0126) or AKT inhibitors (wortmannin),"A549 cells [4]; U0126 (20 μM) or wortmannin (5 μM), FIG. 6D",significantly weakened
same,cell proliferation (BrdU),"A549 cells [4]; oTR 5, 10, and 50 μM, 48 hours, dose-dependent, FIG. 6A",significantly inhibited
same,oTR-induced antiproliferative activity in ERK or AKT knockdown cells,"A549 cells [4]; siERK 1/2 (200 nM) or siAKT (200 nM), FIG. 6D",significantly inhibited
same,increase in percentage of late apoptotic cells compared to untreated NSCLC cells,A549 cells [5]; 10 μM oTR,5.70±0.16%
same,increase in percentage of late apoptotic cells compared to untreated NSCLC cells,A549 cells [5]; 50 μM oTR,24.56±9.37%
same,IC50,H522,26.1 ± 2.47 µM
same,IC50,HCC827,29.7 ± 2.56 µM
